Results published in patent US6743583B2, “Identification of drugs and drug targets by detection of the stress response” (priority 2000, dated 2004).

Key:
tub2 heterozygous strain = conditions: cited from earlier work
alg7 heterozygote = experiment: HSP26 promoter GFP-uv reporter stress response, fluorimeter; format: cell-based, Saccharomyces cerevisiae; design: key: F = fluorescent activity from hsp reporter construct, indicating stress response is induced; NF = no fluorescence, no induction of stress response; conditions: predicted expectations
Source text: (§1) Stress response gene reporter constructs are generally constructed as follows: approximately 500 bp to approximately 1,000 bp or more region upstream of the first start codon of the stress gene of interest (the region encompassing the stress response gene promoter) is fused to the coding region of a reporter polypeptide (e.g., GFP-uv in pRS316 (Sikorski and Hieter (1989) Genetics 122(1):19-27, Clontech). In a specific exemplary construct, approximately 500 bp of the sequence upstream of the hsp26 gene were ligated to the coding region of GFP-uv in pRS316 to provide for expression of the GFP-uv reporter polypeptide under control of the HSP26 promoter.
(§2) 80% of all heterozygous deletion strains of Saccharomyces cerevisiae have been constructed. Heterozygous deletion strains were generated using homologous gene transplacement (Rothstein, R. (1991) Meth. Enzymol. 194:281-301) in wild-type diploid strains using standard methods. The resulting heterozygotes carry a deletion in one of the two copies of a given gene.
(§3) The above-described HSP26 construct and a control construct (containing no upstream HSP26 promoter sequence) is transformed into 4 strains: a wildtype strain and strains heterozygous for ALG7, HIS3, and TUB2. The his3 heterozygous strain is sensitive to 3-amino triazole; the alg7 heterozygous strain is sensitive to tunicamycin; and the tub2 heterozygous strain is sensitive to benomyl. The expression of hsp26 activity is then monitored using a fluorimeter. Comparisons (with predicted expectations) are as follows: […]

his3 heterozygote = experiment: as above; format: cell-based, Saccharomyces cerevisiae; design: key: F = fluorescent activity from hsp reporter construct, indicating stress response is induced; NF = no fluorescence, no induction of stress response; conditions: predicted expectations
Source text: as §1, §2, §3

tub2 heterozygote = experiment: as above; format: cell-based, Saccharomyces cerevisiae; design: key: F = fluorescent activity from hsp reporter construct, indicating stress response is induced; NF = no fluorescence, no induction of stress response; conditions: predicted expectations
Source text: as §1, §2, §3

Wildtype strain = experiment: as above; format: cell-based, Saccharomyces cerevisiae; design: key: F = fluorescent activity from hsp reporter construct, indicating stress response is induced; NF = no fluorescence, no induction of stress response; conditions: predicted expectations
Source text: as §1, §3

CCCCNC(=O)n1c(NC(=O)OC)nc2ccccc21 [benomyl]
sensitivity of strain to drug (tub2 heterozygous strain): sensitive | fluorescent activity from hsp26 reporter construct (alg7 heterozygote): F | fluorescent activity from hsp26 reporter construct (his3 heterozygote): F | fluorescent activity from hsp26 reporter construct (tub2 heterozygote): NF | fluorescent activity from hsp26 reporter construct (Wildtype strain): F
